Laboratory results published in ChEMBL document CHEMBL4024737, “Iodine catalyzed three component synthesis of 1-((2-hydroxy naphthalen-1-yl)(phenyl)(methyl))pyrrolidin-2-one derivatives: Rationale as potent PI3K inhibitors and anticancer agents” (Bioorg Med Chem Lett, 2017).
Calls of active or inactive are those of the source. No cut-off for these calls is given here.

Key:
[1] = target: T1, Phosphatidylinositol 4,5-bisphosphate 3-kinase catalytic subunit alpha isoform (Homo sapiens, UniProt P42336); test: Inhibition of PI3K p110alpha (unknown origin) using PIP2 as substrate preincubated for 10 mins followed by substrate addition measured after 1 hr
MCF7 = test: Growth inhibition of human MCF7 cells by MTT assay; assay type: functional, cell-based; conditions: for IC50: Homo sapiens, MCF7
HCT-116 = test: Growth inhibition of human HCT116 cells by MTT assay; assay type: functional, cell-based; conditions: for IC50: Homo sapiens, HCT-116
[2] = target: T1, Phosphatidylinositol 4,5-bisphosphate 3-kinase catalytic subunit alpha isoform; test: Inhibition of PI3K p110alpha (unknown origin) assessed as residual activity using PIP2 as substrate preincubated for 10 mins followed by substrate addition measured after 1 hr relative to control; set-up: concentration or dose not given beside the values

T1 sequence (P42336 whole entry, canonical isoform): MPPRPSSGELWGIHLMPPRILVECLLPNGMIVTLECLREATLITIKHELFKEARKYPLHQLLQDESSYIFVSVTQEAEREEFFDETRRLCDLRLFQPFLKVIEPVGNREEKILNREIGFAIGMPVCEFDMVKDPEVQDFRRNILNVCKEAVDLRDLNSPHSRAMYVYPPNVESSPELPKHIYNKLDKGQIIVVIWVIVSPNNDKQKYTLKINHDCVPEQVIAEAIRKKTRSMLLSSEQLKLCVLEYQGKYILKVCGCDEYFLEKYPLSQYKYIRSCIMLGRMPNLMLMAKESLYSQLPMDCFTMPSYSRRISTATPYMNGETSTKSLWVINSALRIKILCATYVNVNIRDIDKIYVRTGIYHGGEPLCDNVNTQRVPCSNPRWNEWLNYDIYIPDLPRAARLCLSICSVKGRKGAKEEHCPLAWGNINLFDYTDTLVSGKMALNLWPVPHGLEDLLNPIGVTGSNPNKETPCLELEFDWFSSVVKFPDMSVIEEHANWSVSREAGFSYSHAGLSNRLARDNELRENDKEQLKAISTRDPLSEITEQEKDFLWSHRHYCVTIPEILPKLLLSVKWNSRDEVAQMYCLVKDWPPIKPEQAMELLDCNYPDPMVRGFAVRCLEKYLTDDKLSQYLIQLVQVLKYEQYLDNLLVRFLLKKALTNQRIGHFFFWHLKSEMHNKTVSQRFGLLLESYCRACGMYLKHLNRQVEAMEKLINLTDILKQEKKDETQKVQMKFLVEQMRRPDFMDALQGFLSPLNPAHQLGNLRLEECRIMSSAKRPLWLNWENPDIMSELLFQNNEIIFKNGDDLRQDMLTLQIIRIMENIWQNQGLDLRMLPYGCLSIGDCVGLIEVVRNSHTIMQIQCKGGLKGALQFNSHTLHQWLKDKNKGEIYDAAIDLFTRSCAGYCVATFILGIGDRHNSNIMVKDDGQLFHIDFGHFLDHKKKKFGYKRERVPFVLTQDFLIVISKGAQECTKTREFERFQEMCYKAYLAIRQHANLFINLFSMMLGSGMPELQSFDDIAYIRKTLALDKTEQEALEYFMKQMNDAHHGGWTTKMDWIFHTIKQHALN

Compound | IC50 [1] | growth inhibition (GI) (MCF7) | IC50 (MCF7) | growth inhibition (GI) (HCT-116) | IC50 (HCT-116) | Activity [2]
O=C1CCCN1C(c1ccccc1Br)c1c(O)ccc2ccccc12 (centres undefined) | ≥ 0.05 µM | 76.06% | 1.03 µM | 48.12% | 12.9 µM | 79%
O=C1CCCN1C(c1ccc(Br)cc1)c1c(O)ccc2ccccc12 (centres undefined) | ≥ 15 µM | 41.22% | 16.6 µM | 20.22% | 17.6 µM | 44%
O=C1CCCN1C(c1ccccc1Cl)c1c(O)ccc2ccccc12 (centres undefined) | ≥ 5 µM | 55.01% | 6.58 µM | 40.12% | 26.6 µM | 55%
O=C1CCCN1C(c1cccs1)c1c(O)ccc2ccccc12 (centres undefined) | ≥ 25 µM | 30.01% | 81.1 µM | inactive |  | 24%
COC[C@H]1OC(=O)c2coc3c2[C@@]1(C)C1=C(C3=O)[C@@H]2CCC(=O)[C@@]2(C)C[C@H]1OC(C)=O |  |  |  |  |  | 76%
COc1ccccc1C(c1c(O)ccc2ccccc12)N1CCCC1=O (centres undefined) | ≥ 25 µM | 21.81% | 92.1 µM | inactive |  | 22%
COc1ccc(C(c2c(O)ccc3ccccc23)N2CCCC2=O)cc1 (centres undefined) | ≥ 10 µM | 38.98% | 12 µM | 56.44% | 12 µM | 38%
O=C1CCCN1C(c1ccc(Cl)cc1Cl)c1c(O)ccc2ccccc12 (centres undefined) | < 1 µM | 61.71% | 4.23 µM | 28.26% | 14.2 µM | 62%
O=C1CCCN1C(c1ccc(O)cc1)c1c(O)ccc2ccccc12 (centres undefined) | ≥ 25 µM | 30.98% | 31 µM | 28.14% | 31 µM | 28%
O=C1CCCN1C(c1ccccc1F)c1c(O)ccc2ccccc12 (centres undefined) | ≥ 5 µM | 60.38% | 4.81 µM | 37.38% | 14.8 µM | 56%
O=C1CCCN1C(c1ccc(O)cc1O)c1c(O)ccc2ccccc12 (centres undefined) | ≥ 25 µM | 35.02% | 84.7 µM | inactive |  | 22%
COc1cccc(C(c2c(O)ccc3ccccc23)N2CCCC2=O)c1 (centres undefined) | ≥ 15 µM | 39.71% | 15.2 µM | 24.55% | 15.2 µM | 46%
O=C1CCCN1C(c1ccccc1)c1c(O)ccc2ccccc12 (centres undefined) | ≥ 25 µM | 25.46% | 82.2 µM | inactive |  | 32%
O=C1CCCN1C(c1ccc(Cl)cc1)c1c(O)ccc2ccccc12 (centres undefined) | < 25 µM | 23.14% | 92.2 µM | inactive |  | 42%
Cc1ccc(C(c2c(O)ccc3ccccc23)N2CCCC2=O)cc1 (centres undefined) | < 5 µM | 56.46% | 4.81 µM | 26.28% | 24.8 µM | 52%
COc1cccc2c1C(=O)c1c(O)c3c(c(O)c1C2=O)C[C@@](O)(C(=O)CO)C[C@@H]3O[C@H]1C[C@H](N)[C@H](O)[C@H](C)O1 [DOXORUBICIN] |  | 77.98% |  | inactive |  | 
O=C1CCCN1C(c1cccc2ccccc12)c1c(O)ccc2ccccc12 (centres undefined) | < 5 µM | 60.46% | 4.47 µM | 36.14% | 24.8 µM | 59%
O=C1CCCN1C(c1ccc(F)cc1)c1c(O)ccc2ccccc12 (centres undefined) | ≥ 0.05 µM | 80.23% | 0.981 µM | 60.92% | 6.98 µM | 83%
N#Cc1ccc(C(c2c(O)ccc3ccccc23)N2CCCC2=O)cc1 (centres undefined) | ≥ 25 µM | 33.41% | 80.3 µM | inactive |  | 28%
